Test [1] concerns the target T1, Mu-type opioid receptor (Homo sapiens, UniProt P35372). As to the kind of experiment: Displacement of [3H]-DAMGO from human mu opiod receptor expressed in CHO cells at 10 uM incubated for 60 mins by liquid scintillation counting method relative to control. It is filed as cell-based. In general terms: Displacement assays read how much labelled ligand stays bound in the presence of the test substance.

Test [2] has as its target T1, Mu-type opioid receptor. The test is described as follows: Displacement of [3H]-DAMGO from human mu opiod receptor expressed in CHO cells at 1 uM incubated for 60 mins by liquid scintillation counting method relative to control. It is filed as cell-based.
The target in test [3] is T2, Delta-type opioid receptor (Homo sapiens, UniProt P41143). As to the kind of experiment: Displacement of [3H]-DPDPE from human delta opiod receptor expressed in human HEK293 cells at 1 uM incubated for 60 mins by liquid scintillation counting method relative to control. It is filed as cell-based.
For test [4], the target named is T1, Mu-type opioid receptor. As to the kind of experiment: Displacement of [3H]-DAMGO from human mu opiod receptor expressed in CHO cells incubated for 60 mins by liquid scintillation counting method. It is filed as cell-based.
The target in test [5] is T3, Kappa-type opioid receptor (Homo sapiens, UniProt P41145). The test is described as follows: Displacement of [3H]-U69593 from human kappa opiod receptor expressed in CHO cells incubated for 60 mins by liquid scintillation counting method. The format is cell-based.
Test [6] has as its target T2, Delta-type opioid receptor. As to the kind of experiment: Displacement of [3H]-DPDPE from human delta opiod receptor expressed in human HEK293 cells incubated for 60 mins by liquid scintillation counting method. The format is cell-based.
The species named for test [7] is Homo sapiens. As to the kind of experiment: Selectivity index, ratio of Ki for human mu opiod receptor expressed in CHO cells to Ki for human kappa opiod receptor expressed in CHO cells. The format is cell-based.
For test [8], the species on record is Homo sapiens. The test is described as follows: Selectivity index, ratio of Ki for human delta opiod receptor expressed […] for human kappa opiod receptor expressed in CHO cells. The format is cell-based.
The target of test [9] is T1, Mu-type opioid receptor. As to the kind of experiment: Antagonist activity at human mu opiod receptor expressed in CHO cells assessed as inhibition of DAMGO-induced [35S]GTPgammaS binding incubated for 4 hrs by microbeta liquid scintillation counting method. The format is functional, cell-based.
In test [10] the target is T3, Kappa-type opioid receptor. As to the kind of experiment: Antagonist activity at human kappa opiod receptor expressed in CHO cells assessed as inhibition of U69593-induced [35S]GTPgammaS binding incubated for 4 hrs by microbeta liquid scintillation counting method. It is filed as functional, cell-based.
The target of test [11] is T2, Delta-type opioid receptor. As to the kind of experiment: Antagonist activity at human delta opiod receptor expressed in human HEK293 cells assessed as inhibition of DPDPE-induced [35S]GTPgammaS binding incubated for 2 hrs by microbeta liquid scintillation counting method. It is filed as functional, cell-based. A general note: Binding of GTPγS marks nucleotide exchange on a G protein.

The species entered for test [12] is Homo sapiens. As to the kind of experiment: Selectivity index, ratio of IC50 for human mu opiod receptor expressed in CHO cells to IC50 for human kappa opiod receptor expressed in CHO cells. It is filed as cell-based.
The species named for test [13] is Homo sapiens. As to the kind of experiment: Selectivity index, ratio of IC50 for human delta opiod receptor expressed in HEK293 cells to IC50 for human kappa opiod receptor expressed in CHO cells.
Test [14] concerns the target T3, Kappa-type opioid receptor. The test is described as follows: Displacement of [3H]-U69593 from human kappa opiod receptor expressed in CHO cells at 10 uM incubated for 60 mins by liquid scintillation counting method relative to control. It is filed as cell-based.
In test [15] the target is T3, Kappa-type opioid receptor. As to the kind of experiment: Displacement of [3H]-U69593 from human kappa opiod receptor expressed in CHO cells at 1 uM incubated for 60 mins by liquid scintillation counting method relative to control. It is filed as cell-based.
In test [16] the target is T2, Delta-type opioid receptor. The test is described as follows: Displacement of [3H]-DPDPE from human delta opiod receptor expressed in human HEK293 cells at 10 uM incubated for 60 mins by liquid scintillation counting method relative to control. The format is cell-based.

One may read the inhibition as how much of the control response was suppressed. Low readings indicate a weak effect, high ones a strong effect. The Ki is a dissociation constant, usually derived from enzyme kinetics or from competition with a known ligand. The low end stands for tighter binding, the high end for weaker binding. A word on the IC50: it is the concentration that inhibits the measured activity by half.

T3 sequence (P41145 whole entry): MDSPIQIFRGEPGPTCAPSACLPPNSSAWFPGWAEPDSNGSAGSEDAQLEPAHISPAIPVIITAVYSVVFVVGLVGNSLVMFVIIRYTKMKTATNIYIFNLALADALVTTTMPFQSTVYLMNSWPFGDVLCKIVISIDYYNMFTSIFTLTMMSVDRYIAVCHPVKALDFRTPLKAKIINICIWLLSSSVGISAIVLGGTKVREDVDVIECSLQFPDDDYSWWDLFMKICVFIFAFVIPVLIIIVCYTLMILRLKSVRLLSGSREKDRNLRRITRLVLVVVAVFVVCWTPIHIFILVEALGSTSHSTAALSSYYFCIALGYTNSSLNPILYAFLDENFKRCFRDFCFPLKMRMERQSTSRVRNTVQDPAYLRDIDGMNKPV
T1 sequence (P35372 whole entry): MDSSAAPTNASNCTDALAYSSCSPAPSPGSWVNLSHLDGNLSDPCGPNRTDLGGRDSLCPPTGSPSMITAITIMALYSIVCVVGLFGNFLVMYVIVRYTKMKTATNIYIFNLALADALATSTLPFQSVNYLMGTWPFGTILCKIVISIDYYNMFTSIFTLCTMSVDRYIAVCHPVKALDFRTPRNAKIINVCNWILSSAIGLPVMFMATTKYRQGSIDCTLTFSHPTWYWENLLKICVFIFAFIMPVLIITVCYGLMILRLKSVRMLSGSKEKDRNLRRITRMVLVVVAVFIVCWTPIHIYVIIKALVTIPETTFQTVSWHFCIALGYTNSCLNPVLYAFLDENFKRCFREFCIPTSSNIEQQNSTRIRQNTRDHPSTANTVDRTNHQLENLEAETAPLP
T2 sequence (P41143 whole entry): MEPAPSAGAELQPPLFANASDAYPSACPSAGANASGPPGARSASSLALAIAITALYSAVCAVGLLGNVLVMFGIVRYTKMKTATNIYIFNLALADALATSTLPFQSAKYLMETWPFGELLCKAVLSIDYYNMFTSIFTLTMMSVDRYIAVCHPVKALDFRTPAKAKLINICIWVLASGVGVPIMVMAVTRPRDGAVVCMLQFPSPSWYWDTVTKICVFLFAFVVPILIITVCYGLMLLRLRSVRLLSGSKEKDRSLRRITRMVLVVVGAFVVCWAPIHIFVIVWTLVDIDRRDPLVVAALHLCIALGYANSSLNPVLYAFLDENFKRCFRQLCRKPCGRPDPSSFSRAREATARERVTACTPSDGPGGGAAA

As to `Cc1cc(C)cc(C2CCCN2Cc2ccc(Oc3ccc(C(N)=O)cc3F)cc2)c1` (racemic), the inhibition at Mu-type opioid receptor [1] amounted to 87.2%; at Mu-type opioid receptor [2], 52.7%; in test [3], 49.5%. In addition, the Ki on Mu-type opioid receptor [4] was found to be 93.7 nM; in test [5], 14 nM; in test [6], 105 nM. The Ratio Ki was 6.7 in the test filed under Homo sapiens [7] and 7.5 in the test listed under Homo sapiens [8]. The values for the IC50 (on Mu-type opioid receptor [9]; in [10]; in test [11]) were 29.4 nM, 7.7 nM and 109 nM, respectively. Moreover, the Ratio IC50 was determined as 3.8 in the test filed under Homo sapiens [12] and 14.1 in the test listed under Homo sapiens [13].
As for `COc1ccc(C2CCCN2Cc2ccc(Oc3ccc(C(=O)NO)cc3)cc2)cc1` (stereo not given), the inhibition on Mu-type opioid receptor [1] came out at 40.4%; at Mu-type opioid receptor [2], 12.8%; in test [14], 86%; in test [15], 52.3%; in [16], 24.4%; in test [3] it was 3.9%. For the same compound, the results for the Ki (on Mu-type opioid receptor [4]; in test [5]; in test [6]) were 2310 nM, 180 nM and > 10000 nM, respectively. Besides, the Ratio Ki in the test filed under Homo sapiens [7] was 12.8; in the test filed under Homo sapiens [8], > 55.5. The IC50 at Mu-type opioid receptor [9] was 202 nM; in test [10], 178 nM; in [11], > 5000 nM. For the same compound, the values for the Ratio IC50 in the test filed under Homo sapiens [12] and in the test listed under Homo sapiens [13] were 1.1 and > 28, respectively.
`O=C(NO)c1ccc(Oc2ccc(CN3CCCC3c3cccc(F)c3)cc2)c(F)c1` (stereo not given): the inhibition is 73.2% at Mu-type opioid receptor [1]; 25.8% on Mu-type opioid receptor [2]; 80.6% in test [14]; 45.8% in [15]; 28.4% in [16]; 16.8% in test [3]. Also, the inhibition constant Ki on Mu-type opioid receptor [4] is 2800 nM; in test [5] it was 498 nM; in test [6] it was > 10000 nM. The Ratio Ki in the test filed under Homo sapiens [7] was 4.6; in the test listed under Homo sapiens [8] it was > 20.

For the origin of these results see ChEMBL document CHEMBL4619756, “Design, synthesis and biological evaluation of N-hydroxy-aminobenzyloxyarylamide analogues as novel selective κ opioid receptor antagonists” (Bioorg Med Chem Lett, 2020).
